# Molecular target: GLP-1R (Homo sapiens, UniProt P43220)
# Experiment: GLP-1R agonistic activity by One-Lite luciferase assay in HEK293-GLP-1R-luc cells (Example 59)
# Format: cell-based
# Details: 6 h incubation, read-out: cAMP EC50
# Protocol: The agonistic activities of the compounds of the present disclosure on GLP-1R were evaluated by detecting the generation of cAMP.
# • (1) Cell line: HEK293-GLP-1R-luc Stable Cell Line (Cobioer, CBP71117); • (2) Culture medium: DMEM+10% FBS (Gibco); • (3) Kit: One-Lite™ kit Luciferase Assay System (Vazyme). 2. Experimental Procedures • (1) HEK293-GLP1R cells were inoculated in a 96-well plate at a density of 30000 cells per well; • (2) 10× working solution of each compound was formulated; • (3) 10 μL of 10× working solution of each compound was added to corresponding well and incubated at 37° C. for 6 h; • (4) 100 μL of One-Lite Luciferase Assay Substrate formulated using One-Lite Luciferase Assay Buffer was added to each well; • (5) The plate was incubated at room temperature for 3 min; • (6) The plate was read by a multimode microplate reader to detect chemiluminescence. 3. Data Analysis • (1) % Activity was calculated by the following formula: % Activity=100−(Signalcmpd−SignalAve-PC)/(SignalAve-VC−SignalAve-PC)×100 • (2) The dose-response curve was plotted to calculate EC50: Y=Bottom+(Top−Bottom)/(1+10^(Log EC50−X)*HillSlope)) • X: log of agonist concentration; Y: Activity. 4. Experimental Results
# GLP-1R, sequence (P43220 24-463): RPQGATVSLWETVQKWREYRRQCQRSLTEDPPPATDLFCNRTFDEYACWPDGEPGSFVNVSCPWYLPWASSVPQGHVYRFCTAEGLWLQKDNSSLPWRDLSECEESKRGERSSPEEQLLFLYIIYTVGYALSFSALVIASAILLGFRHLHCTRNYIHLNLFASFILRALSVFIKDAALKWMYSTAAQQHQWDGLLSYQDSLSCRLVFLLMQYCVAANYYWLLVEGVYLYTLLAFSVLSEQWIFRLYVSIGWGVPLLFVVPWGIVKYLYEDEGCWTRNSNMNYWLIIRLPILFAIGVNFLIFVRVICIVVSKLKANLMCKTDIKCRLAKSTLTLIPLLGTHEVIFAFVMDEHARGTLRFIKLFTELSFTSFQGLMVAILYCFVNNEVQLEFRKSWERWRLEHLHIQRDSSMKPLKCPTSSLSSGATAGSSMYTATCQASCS
row,EC50 [nM],Structure (SMILES)
1,≤ 20,Cc1cc(-n2nc3c(c2-n2ccn(-c4ccc5c(cnn5C)c4F)c2=O)[C@H](C)N(C(=O)c2cc4cc([C@H]5CCOC(C)(C)C5)ccc4n2[C@@]2(c4noc(=O)[nH]4)C[C@@H]2C)CC32CCN(C=O)CC2)cc(C)c1F [Compound 64]
2,≤ 20,Cc1cc(-n2nc3c(c2-n2ccn(-c4ccc5c(cnn5C)c4F)c2=O)[C@H](C)N(C(=O)c2cc4cc([C@H]5CCOC(C)(C)C5)ccc4n2[C@@]2(c4noc(=O)[nH]4)C[C@@H]2C)CC32CCN(C(=O)CN)CC2)cc(C)c1F [Compound 161]
3,≤ 20,Cc1cc(-n2nc3c(c2-n2ccn(-c4ccc5c(cnn5C)c4F)c2=O)[C@H](C)N(C(=O)c2cc4cc([C@H]5CCOC(C)(C)C5)ccc4n2[C@@]2(c4noc(=O)[nH]4)C[C@@H]2C)CC32CSC2)cc(C)c1F [Compound 189]
4,≤ 20,C[C@H]1C[C@]1(c1noc(=O)[nH]1)n1c(C(=O)N2C3CCCC2c2c(nn(-c4ccc(F)c(C5CC5)c4)c2-n2ccn(-c4ccc5c(cnn5C)c4F)c2=O)C3)cc2cc([C@H]3CCOC(C)(C)C3)ccc21 (stereo partly drawn) [Compound 151]
5,> 300,"C[C@H]1c2c(nn(-c3ccc(F)c(C4CC4)c3)c2-n2ccn(-c3ccc4c(cnn4C)c3F)c2=O)C2(CC2)CN1C(=O)c1cc2cc(C3CCOC(C)(C)C3)ccn2c1C1(c2noc(=O)[nH]2)CC1 (single isomer, unassigned) [Compound 186-A]"
6,≤ 20,Cc1cc(-n2nc3c(c2-n2ccn(-c4ccc5c(cnn5C)c4F)c2=O)[C@H](C)N(C(=O)c2cc4cc([C@H]5CCOC(C)(C)C5)ccc4n2[C@@]2(c4noc(=O)[nH]4)C[C@@H]2C)CC32CN(C(=O)C(F)(F)F)C2)cc(C)c1F [Compound 167]
7,≤ 20,Cc1cc(-n2nc3c(c2-n2ccn(-c4ccc5c(cnn5C)c4F)c2=O)[C@H](C)N(C(=O)c2cc4cc([C@H]5CCOC(C)(C)C5)ccc4n2[C@@]2(c4noc(=O)[nH]4)C[C@@H]2C)CC32CC(O)C(O)C2)cc(C)c1F (stereo partly drawn) [Compound 213]
8,≤ 20,CNC1CCC2(C1)CN(C(=O)c1cc3cc([C@H]4CCOC(C)(C)C4)ccc3n1[C@@]1(c3noc(=O)[nH]3)C[C@@H]1C)[C@@H](C)c1c2nn(-c2cc(C)c(F)c(C)c2)c1-n1ccn(-c2ccc3c(cnn3C)c2F)c1=O (stereo partly drawn) [Compound 229]
9,> 300,"Cc1cc(-n2nc3c(c2-n2ccn(-c4ccc5c(cnn5C)c4F)c2=O)[C@H](C)N(C(=O)c2cc4cc(C5CCOC(C)(C)C5)ccn4c2C2(c4noc(=O)[nH]4)CC2)CC32CC2)cc(C)c1F (single isomer, unassigned) [Compound 185-A]"
10,≤ 20,[2H]C([2H])([2H])OC1CC2(C1)CN(C(=O)c1cc3cc([C@H]4CCOC(C)(C)C4)ccc3n1[C@@]1(c3noc(=O)[nH]3)C[C@@H]1C)[C@@H](C)c1c2nn(-c2cc(C)c(F)c(C)c2)c1-n1ccn(-c2ccc3c(cnn3C)c2F)c1=O (stereo partly drawn) [Compound 207]
11,≤ 20,Cc1cc(-n2nc3c(c2-n2ccn(-c4ccc5c(cnn5C)c4F)c2=O)[C@H](C)N(C(=O)c2cc4cc([C@H]5CCOC(C)(C)C5)ccc4n2[C@@]2(c4noc(=O)[nH]4)C[C@@H]2C)CC32CCCC2)cc(C)c1F [Compound 25]
12,≤ 20,Cc1cc(-n2nc3c(c2-n2ccn(-c4ccc5c(cnn5C)c4F)c2=O)[C@H](C)N(C(=O)c2cc4cc([C@H]5CCOC(C)(C)C5)ccc4n2[C@@]2(c4noc(=O)[nH]4)C[C@@H]2C)CC32CCSCC2)cc(C)c1F [Compound 188]
13,≤ 20,CNC1CC2(C1)CN(C(=O)c1cc3cc([C@H]4CCOC(C)(C)C4)ccc3n1[C@@]1(c3noc(=O)[nH]3)C[C@@H]1C)[C@@H](C)c1c2nn(-c2cc(C)c(F)c(C)c2)c1-n1ccn(-c2ccc3c(cnn3C)c2F)c1=O (stereo partly drawn) [Compound 220]
14,≤ 20,CCOC1CC2(C1)CN(C(=O)c1cc3cc([C@H]4CCOC(C)(C)C4)ccc3n1[C@@]1(c3noc(=O)[nH]3)C[C@@H]1C)[C@@H](C)c1c2nn(-c2cc(C)c(F)c(C)c2)c1-n1ccn(-c2ccc3c(cnn3C)c2F)c1=O (stereo partly drawn) [Compound 187]
15,≤ 20,Cc1cc(-n2nc3c(c2-n2ccn(-c4ccc5c(cnn5C)c4F)c2=O)[C@H](C)N(C(=O)c2cc4cc([C@H]5CCOC(C)(C)C5)ccc4n2[C@@]2(c4noc(=O)[nH]4)C[C@@H]2C)CC32COC2)cc(C)c1F [Compound 21]
16,≤ 20,COC(=O)N1CCC2(CC1)CN(C(=O)c1cc3cc([C@H]4CCOC(C)(C)C4)ccc3n1[C@@]1(c3noc(=O)[nH]3)C[C@@H]1C)[C@@H](C)c1c2nn(-c2cc(C)c(F)c(C)c2)c1-n1ccn(-c2ccc3c(cnn3C)c2F)c1=O [Compound 159]
17,≤ 20,CC(=O)N1CCC2(CC1)CN(C(=O)c1cc3cc([C@H]4CCOC(C)(C)C4)ccc3n1[C@@]1(c3noc(=O)[nH]3)C[C@@H]1C)[C@@H](C)c1c2nn(-c2cc(C)c(F)c(C)c2)c1-n1ccn(-c2ccc3c(cnn3C)c2F)c1=O [Compound 91]
18,100 to 300,Cc1cc(-n2nc3c(c2-n2ccn(-c4ccc5c(cnn5C)c4F)c2=O)[C@H](C)N(C(=O)c2cc4cc(C5CCOCC5)ccc4n2C2(c4noc(=O)[nH]4)CC2)CC32CC2)cc(C)c1F [Compound 174]
19,≤ 20,Cc1cc(-n2nc3c(c2-n2ccn(-c4ccc5c(cnn5C)c4F)c2=O)[C@H](C)N(C(=O)c2cc4cc([C@H]5CCOC(C)(C)C5)ccc4n2[C@@]2(c4noc(=O)[nH]4)C[C@@H]2C)CC32CCN(C)C2)cc(C)c1F (stereo partly drawn) [Compound 79]
20,≤ 20,Cc1cc(-n2nc3c(c2-n2ccn(-c4ccc5c(cnn5C)c4F)c2=O)[C@H](C)N(C(=O)c2cc4cc([C@H]5CCOC(C)(C)C5)ccc4n2[C@@]2(c4noc(=O)[nH]4)C[C@@H]2C)CC32CC(C)C2)cc(C)c1F (stereo partly drawn) [Compound 219]
21,≤ 20,COC1CC2(CC1OC)CN(C(=O)c1cc3cc([C@H]4CCOC(C)(C)C4)ccc3n1[C@@]1(c3noc(=O)[nH]3)C[C@@H]1C)[C@@H](C)c1c2nn(-c2cc(C)c(F)c(C)c2)c1-n1ccn(-c2ccc3c(cnn3C)c2F)c1=O (stereo partly drawn) [Compound 214]
22,20 to 100,Cc1cc(-n2nc3c(c2-n2ccn(-c4ccc5c(cnn5C)c4F)c2=O)[C@H](C)N(C(=O)c2cc4cc([C@H]5CCOC(C)(C)C5)ccc4n2[C@@]2(c4noc(=O)[nH]4)C[C@@H]2C)CC32C[C@@H]2C)cc(C)c1F (stereo partly drawn) [Compound 227]
23,≤ 20,Cc1cc(-n2nc3c(c2-n2ccn(-c4ccc5c(cnn5C)c4F)c2=O)[C@H](C)N(C(=O)c2cc4cc([C@H]5CCOC(C)(C)C5)ccc4n2[C@@]2(c4noc(=O)[nH]4)C[C@@H]2C)CC32CN(S(C)(=O)=O)C2)cc(C)c1F [Compound 168]
24,≤ 20,Cc1cc(-n2nc3c(c2-n2ccn(-c4ccc5c(cnn5C)c4F)c2=O)[C@H](C)N(C(=O)c2cc4cc([C@H]5CCOC(C)(C)C5)ccc4n2[C@@]2(c4noc(=O)[nH]4)C[C@@H]2C)CC32CC(N)C2)cc(C)c1F (stereo partly drawn) [Compound 183]
25,≤ 20,Cc1cc(-n2nc3c(c2-n2ccn(-c4ccc5c(cnn5C)c4F)c2=O)[C@H](C)N(C(=O)c2cc4cc([C@H]5CCOC(C)(C)C5)ccc4n2[C@@]2(c4noc(=O)[nH]4)C[C@@H]2C)CC32CCN(C=O)C2)cc(C)c1F (stereo partly drawn) [Compound 83]
26,≤ 20,Cc1cc(-n2nc3c(c2-n2ccn(-c4ccc5c(cnn5C)c4F)c2=O)[C@H](C)N(C(=O)c2cc4cc([C@H]5CCOC(C)(C)C5)ccc4n2[C@@]2(c4noc(=O)[nH]4)C[C@@H]2C)CC32CCCCO2)cc(C)c1F (stereo partly drawn) [Compound 39]
27,≤ 20,"Cc1cc(-n2nc3c(c2-n2ccn(-c4ccc5c(cnn5C)c4F)c2=O)[C@H](C)N(C(=O)c2cc4cc([C@H]5CCOC(C)(C)C5)ccc4n2[C@@]2(c4noc(=O)[nH]4)C[C@@H]2C)CC32CCCN(C)C2)cc(C)c1F (single isomer, unassigned) [Compound 53-A]"
